Laboratory results published in the supplement of paper PMC10307832.

How the values were obtained:
Test in all cases: relative viability (nuclei count vs DMSO), 5 days (fraction); higher = more cells survive
NCI-H441 = system: NCI-H441
Outline: (§1)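 Dosing by pin tool came one day after lung cancer cell lines were seeded in 1536-well plates, using either one drug or a fixed anchor-drug dose plus five library-drug doses (not always all listed) in √10 steps. After 5 days, nuclei were counted on 4× images. Relative viability is treated-well nuclei count divided by vehicle-well nuclei count, and values are medians of duplicate plates.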

NCI-H23 = system: NCI-H23
Outline: as §1

NCI-H1975 = system: NCI-H1975
Outline: as §1

NCI-H1734 = system: NCI-H1734
Outline: as §1

PC-3 [JPC-3] = system: PC-3 [JPC-3]
Outline: as §1

SK-MES-1 = system: SK-MES-1
Outline: as §1

LOU-NH91 = system: LOU-NH91
Outline: as §1

NCI-H1755 = system: NCI-H1755
Outline: as §1

H3255 = system: H3255
Outline: as §1

NCI-H1563 = system: NCI-H1563
Outline: as §1

A-427 = system: A-427
Outline: as §1

COR-L 105 = system: COR-L 105
Outline: as §1

NCI-H596 = system: NCI-H596
Outline: as §1

HCC-366 = system: HCC-366
Outline: as §1

EKVX = system: EKVX
Outline: as §1

NCI-H1666 = system: NCI-H1666
Outline: as §1

NCI-H520 = system: NCI-H520
Outline: as §1

LK-2 = system: LK-2
Outline: as §1

EMC-BAC-2 = system: EMC-BAC-2
Outline: as §1

COc1nc(C)cnc1NS(=O)(=O)c1cccnc1-c1ccc(-c2nnco2)cc1 [Zibotentan] + C[C@]1(O)C[C@@H](c2nc(-c3ccc4ccc(-c5ccccc5)nc4c3)c3c(N)nccn32)C1 [Linsitinib] (partner 1 µM)
relative viability (NCI-H441; first compound 0.08 µM): 0.634 | relative viability (NCI-H441; first compound 0.253 µM): 0.552 | relative viability (NCI-H441; first compound 0.8 µM): 0.633 | relative viability (NCI-H441; first compound 2.53 µM): 0.535 | relative viability (NCI-H23; first compound 0.08 µM): 0.614 | relative viability (NCI-H23; first compound 0.253 µM): 0.545 | relative viability (NCI-H23; first compound 0.8 µM): 0.653 | relative viability (NCI-H23; first compound 2.53 µM): 0.477 | relative viability (NCI-H1975; first compound 0.08 µM): 0.947 | relative viability (NCI-H1975; first compound 0.253 µM): 0.895 | relative viability (NCI-H1975; first compound 0.8 µM): 0.94 | relative viability (NCI-H1975; first compound 2.53 µM): 0.884 | relative viability (NCI-H1734; first compound 0.08 µM): 1.01 | relative viability (NCI-H1734; first compound 0.253 µM): 0.815 | relative viability (NCI-H1734; first compound 0.8 µM): 0.936 | relative viability (NCI-H1734; first compound 2.53 µM): 0.975 | relative viability (PC-3 [JPC-3]; first compound 0.08 µM): 0.931 | relative viability (PC-3 [JPC-3]; first compound 0.253 µM): 0.964 | relative viability (PC-3 [JPC-3]; first compound 0.8 µM): 1.01 | relative viability (PC-3 [JPC-3]; first compound 2.53 µM): 0.98 | relative viability (SK-MES-1; first compound 0.08 µM): 1.12 | relative viability (SK-MES-1; first compound 0.253 µM): 1 | relative viability (SK-MES-1; first compound 0.8 µM): 1.05 | relative viability (SK-MES-1; first compound 2.53 µM): 1.14 | relative viability (LOU-NH91; first compound 0.08 µM): 0.94 | relative viability (LOU-NH91; first compound 0.253 µM): 0.836 | relative viability (LOU-NH91; first compound 0.8 µM): 0.982 | relative viability (LOU-NH91; first compound 2.53 µM): 1.02 | relative viability (NCI-H1755; first compound 0.08 µM): 0.99 | relative viability (NCI-H1755; first compound 0.253 µM): 0.967 | relative viability (NCI-H1755; first compound 0.8 µM): 1.03 | relative viability (NCI-H1755; first compound 2.53 µM): 1.03 | relative viability (H3255; first compound 0.08 µM): 1.02 | relative viability (H3255; first compound 0.253 µM): 0.998 | relative viability (H3255; first compound 0.8 µM): 0.899 | relative viability (H3255; first compound 2.53 µM): 0.983 | relative viability (NCI-H1563; first compound 0.08 µM): 1.17 | relative viability (NCI-H1563; first compound 0.253 µM): 0.789 | relative viability (NCI-H1563; first compound 0.8 µM): 1.39 | relative viability (NCI-H1563; first compound 2.53 µM): 1.34 | relative viability (A-427; first compound 0.08 µM): 1.12 | relative viability (A-427; first compound 0.253 µM): 1.17 | relative viability (A-427; first compound 0.8 µM): 1.14 | relative viability (A-427; first compound 2.53 µM): 1.12 | relative viability (COR-L 105; first compound 0.08 µM): 1.02 | relative viability (COR-L 105; first compound 0.253 µM): 0.871 | relative viability (COR-L 105; first compound 0.8 µM): 0.986 | relative viability (COR-L 105; first compound 2.53 µM): 0.919 | relative viability (NCI-H596; first compound 0.08 µM): 1.23 | relative viability (NCI-H596; first compound 0.253 µM): 1.08 | relative viability (NCI-H596; first compound 0.8 µM): 1.03 | relative viability (NCI-H596; first compound 2.53 µM): 1.11 | relative viability (HCC-366; first compound 0.08 µM): 0.7 | relative viability (HCC-366; first compound 0.253 µM): 0.586 | relative viability (HCC-366; first compound 0.8 µM): 0.518 | relative viability (HCC-366; first compound 2.53 µM): 0.794 | relative viability (EKVX; first compound 0.08 µM): 1.02 | relative viability (EKVX; first compound 0.253 µM): 1.02 | relative viability (EKVX; first compound 0.8 µM): 0.777 | relative viability (EKVX; first compound 2.53 µM): 1.16 | relative viability (NCI-H1666; first compound 0.08 µM): 0.656 | relative viability (NCI-H1666; first compound 0.253 µM): 0.709 | relative viability (NCI-H1666; first compound 0.8 µM): 0.877 | relative viability (NCI-H1666; first compound 2.53 µM): 0.825 | relative viability (NCI-H520; first compound 0.08 µM): 1.05 | relative viability (NCI-H520; first compound 0.253 µM): 0.892 | relative viability (NCI-H520; first compound 0.8 µM): 0.904 | relative viability (NCI-H520; first compound 2.53 µM): 1.02 | relative viability (LK-2; first compound 0.08 µM): 0.709 | relative viability (LK-2; first compound 0.253 µM): 0.535 | relative viability (LK-2; first compound 2.53 µM): 0.701 | relative viability (EMC-BAC-2; first compound 0.08 µM): 0.895 | relative viability (EMC-BAC-2; first compound 0.253 µM): 0.785 | relative viability (EMC-BAC-2; first compound 0.8 µM): 0.823 | relative viability (EMC-BAC-2; first compound 2.53 µM): 0.905
